This note sets out measurements from patent US20220135547A1, “HETEROCYCLIC LOW-MOLECULAR SAPP MIMETICS, A PHARMACEUTICAL COMPOSITION AND METHODS FOR PRODUCING AND USING SAME” (priority 2010, published 2022).

In this assay the test system is 1-3 days old chicken memory. In words: one-trial passive avoidance learning task in chicks (weak training, test 24 hours after training). In kind it is in vivo. Particulars: for dosage at which the maximum effect was observed: weak training, chicks. As to the method: The method of one-trial passive avoidance learning task has been used in order to investigate the compounds action on 1-3 days old chicken memory. This is the basic method using for investigation the mechanisms of memory formation. Cross chickens (males) “Ptichnoe” were used in experiments. The animals were delivered at the day of hatching and were kept in pairs in the cages which measured 20×25×20 cm, with constant access to water and feed, at a temperature 28° C. and a light cycle of 12:12 hours. The minimal adaptation time was two hours.
The compounds were dissolved in sterile saline. Intraperitoneal injections of 0.1 ml were used for systemic administration. Bilateral intracranial injections were administrated to the lateral ventricles with […] microsyringe («Hamilton») using plastic headholder. The volume of injections was […] for hemisphere. To control the localizations of injections the monitoring of the surface of skull and brain were carried out after the experiment and decapitation. Control groups received saline of the same volume.
The experiments were conducted according the following scheme: 20 minutes before training the animals were pretrained by being offered two neutral (wet with water) […] fixed to a rod. For further training chicks that pecked each bead within first 10 sec were used. Chicks were offered an aversive bead wet with pungent solution (10% solution of methylanthranilate in ethanol). […] Testing was conducted 24 hours after training by offering within 10 seconds a similar but dry aversive bead, and then—a neutral bead. The avoidance of aversive bead was estimated as a long-term memory.

[1] abbreviates: administrated either immediately before training, or 4 hours after completion of the training.

Consider `O=C(NCCc1ccncc1)C(NCCc1ccncc1)c1ccc2c(c1)OCO2` (stereo not drawn) [ACB-0005, 2-(1,3-benzodioxole-5-yl)-N-(2-pyridine-4-ylethyl)-2-[(2-pyridine-4-ylethyl)-amino]acetamid], for which the “dosage at which the maximum effect was observed” value (10 min training (route not given)) is on record as 0.1 mg/kg and the “dosage at which the maximum effect was observed” value (intracranial injection 10-30 min before training) worked out at 5 mg. Moreover, the effect on memory result runs as follows: under setting [1], “may enhance memory”; (oral administration 30 min before weak treatment, dosage 0.1 to 1.0 mg/kg) “stimulating effect on memory”. In addition, the “dosage at which the maximum effect was observed, per animal” value (equivalent of 0.1 mg/kg, 10 min training) was found to be 4 µg per animal.

In the case of `COC(=O)c1ccc(C(NCCc2ccncc2)C(=O)NCCc2ccncc2)cc1` (stereo not drawn) [ACB-0002, Methyl 4-{2-oxo-1,2-bis[(2-pyridine-4-ylethyl)amino]ethyl}benzoate], under setting [1], the effect on memory entry is on record as “may enhance memory”.
